Results on 11 compounds are retold here after patent publication US20110144128A1, “Heterocyclic Carboxamide Compounds as Steroid Nuclear Receptors Ligands” (EXELIXIS, INC., priority 2005, published 2011).

Broadly, the IC50 is the concentration that gives 50% inhibition. A higher IC50 goes with lower potency.

SMILES strings stand for the structures.

In one experiment the target is T1, human MR (Homo sapiens, UniProt P08235).
T1 construct: expressed in transfected cells; host or cells: CV-1 (African Green Monkey Kidney Cells), transiently transfected with pCMX-GAL4-MR
T1 sequence (P08235 671-984): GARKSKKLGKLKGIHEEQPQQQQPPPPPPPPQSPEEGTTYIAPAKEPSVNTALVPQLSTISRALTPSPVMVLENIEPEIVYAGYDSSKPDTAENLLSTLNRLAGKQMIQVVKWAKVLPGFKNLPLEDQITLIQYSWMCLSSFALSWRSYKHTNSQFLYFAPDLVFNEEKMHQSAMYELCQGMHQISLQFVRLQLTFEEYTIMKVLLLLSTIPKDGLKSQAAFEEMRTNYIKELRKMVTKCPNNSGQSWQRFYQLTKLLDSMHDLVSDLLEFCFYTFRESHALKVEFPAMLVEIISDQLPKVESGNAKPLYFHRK
The experiment can be described thus: GAL4-MR cell based assay, antagonist format. On the procedure:
Compound activity was determined in a cell-based assay using a GAL4-MR chimera to identify compounds with the ability to modulate MR activity.
The pCMX-GAL4-MR expression plasmid was constructed by cloning nucleotides encoding amino acids 671 to 984 of human MR (see GenBank sequence AAA59571) into the vector pCMX-GAL4 (Perlmann et al., 1993,Genes & Development 7:1411-1422) comprising nucleotides encoding for amino acids 1-147 of the GAL4 DNA binding domain.
The TK-MH 100x4-Luc (GAL4UAS-TK-Luciferase) reporter construct was constructed by insertion of four copies of the Gal4 UAS (Kang et al. 1993, J. Biol. Chem. 268:9629-9635) into the Hind III site of TK-Luc. The parental plasmid, TK-Luc, was prepared by insertion of the Herpes simplex virus thymidine kinase gene promoter (−105 to +51) obtained from the plasmid pBLCAT2 by digestion with HindIII and XhoI (described in Luckow et al., 1987, Nuc. Acid. Res. 15:5490) into the plasmid MMTV-LUC described by Hollenberg and Evans, 1988, Cell 55:899-906) after removal of MMTV-LTR promoter sequence from MMTV-LUC via digestion with HindIII and XhoI. Correct cloning was confirmed by restriction digestion and/or sequencing.
Assays were performed using CV-1 (African Green Monkey Kidney Cells) (ATCC) cells grown in T175 flasks at a density of 3×10^6 cells/flask in DMEM with 5% FBS. Cells were transfected one day after plating at 70-80 percent confluency with a DNA mixture containing (per T175 flask) 9 […] pCMX-GAL4-MR, 9 μg TK-MH100x4-Luc, and 2 μg pCMX β-Gal using the transfection reagent FuGENE6 (Roche Molecular Biochemicals, Indianapolis, Ind.) following recommended protocols and instructions provided by the manufacturer, and incubated with transfection reagents for 5 hours at 37° C.
Transfected cells were trypsinized, resuspended in media, and 45 μL was added to assay plates at a density of approximately 5,000 cells/well using a MultiDrop dispenser (MTX Lab Systems, Inc., VA). The assay plates containing both compounds and screening cells were incubated for approximately 20 hours at 37° C. and 5% CO2 in a tissue culture incubator.
After incubation of the transfected cells with compounds, Lysis buffer (1% Triton X-100, 10% Glycerol, 5 mM DTT, 1 mM EGTA, 25 mM Tricine, pH 7.8) and Luciferin assay buffer (0.73 mM ATP, 22.3 mM Tricine, 0.11 mM EDTA, 33.3 mM DTT, 0.2M MgSO4, 11 mM Luciferin, 6.1 mM Coenzyme A, 0.01 mM HEPES, pH 7.8) were prepared. Media was removed from the plates and lysis buffer and luciferin assay buffer mixed in a 1:1 ratio and then 30 μl of the mixture was added to each well using a Multidrop dispenser. Plates were read on the Northstar (Applied Biosystems, Foster City, Calif.) and data was analyzed using ActivityBase (ID Business Solutions, Ltd., Guildford, Surrey, UK). If required, luciferase values may be normalized for transfection efficiency by measuring β-galactosidase activity based on expression from the pCMX-βGal expression plasmid as described previously (Willy et al., 1995, Gene & Development, 9:1033-1045).
(§1) The following table provides in vitro MR activity data of representative compounds described in the Examples. […] The “+” mark under the selectivity column is given to those compounds having greater than ten-fold antagonist activity against MR compared to at least one nuclear receptor selected from AR, ERα, GR and PR, as determined from the GAL4-AR, GAL4-ERα, GAL4-GR and GAL4-PR assays. The “++” mark under the selectivity column identifies those compounds having greater than ten-fold antagonist activity against MR compared to the four nuclear receptors AR, ERα, GR and PR, as determined from the GAL4-AR, GAL4-ERα, GAL4-GR and GAL4-PR assays.

The test system of a further experiment is AR, ERα, GR and PR. In words: selectivity assays GAL4-AR, GAL4-ERα, GAL4-GR and GAL4-PR, antagonist mode. Type of experiment: cell-based. As to conditions: antagonist activity against MR compared to AR. On the procedure:
In certain cases, compounds were also evaluated for activity in selectivity assays with other steroid hormone receptor members, including AR, ER, GR and PR, as well as GAL4 alone. Steroid receptors used for selectivity assays were essentially generated as described above for pCMX-GAL4-MR, and comprised the LBD and a portion of the hinge region of the nuclear receptor of interest cloned in frame into the vector pCMX-GAL4 (Perlmann et al., 1993,Genes & Development 7:1411-1422) as described above.
Assays run in antagonist mode included agonists as follows: AR; 25 nM dihydrotestosterone (DHT), ER; 4.5 nM estradiol, GR; 20 nM dexamethasone, and PR; 2 nM medroxyprogesterone (MPA), respectively. Assays run in agonist mode contained no supplemental compounds.
as §1

At human MR, `CCc1nc(C(=O)Nc2ccc(S(C)(=O)=O)cc2)c(C)n1-c1ccccc1C(F)(F)F` [2-ethyl-5-methyl-1-(2-trifluoromethyl-phenyl)-1H-imidazole-4-carboxylic acid (4-methanesulfonyl-phenyl)-amide] came in with an IC50 of less than 0.5 µM. For the same compound, in the experiment on AR, ERα, GR and PR, the Selectivity result was “++ (greater than ten-fold antagonist activity against MR compared to the four nuclear receptors AR, ERα, GR and PR)”.
Compound `COc1cc(NC(=O)c2cc(C)n(-c3ccccc3C(F)(F)F)c2C)ccc1S(N)(=O)=O` [2,5-dimethyl-1-(2-trifluoromethyl-phenyl)-1H-pyrrole-3-carboxylic acid (3-methoxy-4-sulfamoyl-phenyl)-amide] showed an IC50 against human MR of less than 0.5 µM. Besides, the Selectivity entry in the experiment with AR, ERα, GR and PR was “++ (greater than ten-fold antagonist activity against MR compared to the four nuclear receptors AR, ERα, GR and PR)”.
For the compound `Cc1c(C(=O)Nc2ccc(S(N)(=O)=O)cc2)cn(C)c1-c1ccccc1C(F)(F)F` [1,4-dimethyl-5-(2-trifluoromethyl-phenyl)-1H-pyrrole-3-carboxylic acid (4-sulfamoyl-phenyl)-amide], the IC50 against human MR was less than 0.5 µM. In addition, the Selectivity entry in the experiment with AR, ERα, GR and PR was “++ (greater than ten-fold antagonist activity against MR compared to the four nuclear receptors AR, ERα, GR and PR)”.
On human MR, `Cc1[nH]c(C(=O)Nc2ccc(S(C)(=O)=O)cc2)c(C)c1-c1ccccc1C(F)(F)F` [3,5-dimethyl-4-(2-trifluoromethyl-phenyl)-1H-pyrrole-2-carboxylic acid (4-methanesulfonyl-phenyl)-amide] came in with an IC50 of less than 0.5 µM. Moreover, the Selectivity result in the experiment with AR, ERα, GR and PR was “++ (greater than ten-fold antagonist activity against MR compared to the four nuclear receptors AR, ERα, GR and PR)”.
Turning to `Cc1cc(C(=O)Nc2ccc(S(C)(=O)=O)cc2)c(C)n1-c1cccc2ccccc12` [2,5-Dimethyl-1-naphthalen-1-yl-1H-pyrrole-3-carboxylic acid (4-methanesulfonyl-phenyl)-amide], the IC50 against human MR was less than 0.5 µM. The Selectivity result with AR, ERα, GR and PR is “++ (greater than ten-fold antagonist activity against MR compared to the four nuclear receptors AR, ERα, GR and PR)”.
`Cc1cc(C(=O)Nc2ccc(S(N)(=O)=O)cc2)c(C)n1-c1ccccc1C(F)(F)F` [2,5-Dimethyl-1-(2-trifluoromethyl-phenyl)-1H-pyrrole-3-carboxylic acid (4-sulfamoyl-phenyl)-amide]: at human MR, the IC50 was less than 0.5 µM. In the experiment with AR, ERα, GR and PR, the Selectivity result was “++ (greater than ten-fold antagonist activity against MR compared to the four nuclear receptors AR, ERα, GR and PR)”.
For `Cc1cc(C(=O)Nc2ccc(S(=O)(=O)NC(=N)N)cc2)c(C)n1-c1ccccc1C(F)(F)F` [2,5-Dimethyl-1-[2-(trifluoromethyl)phenyl]-1H-pyrrole-3-carboxylic acid (4-guanidinosulfonyl-phenyl)-amide], the IC50 against human MR lay in the range of 1 to 5 µM. In addition, the Selectivity entry in the experiment on AR, ERα, GR and PR is “+ (greater than ten-fold antagonist activity against MR compared to at least one nuclear receptor selected from AR, ERα, GR and PR)”.
As for `CCNS(=O)(=O)c1ccc(NC(=O)c2cc(C)n(-c3ccccc3C(F)(F)F)c2C)cc1` [2,5-dimethyl-1-[2-(trifluoromethyl)phenyl]-1H-pyrrole-3-carboxylic acid (4-ethylsulfamoyl-phenyl)-amide], the IC50 against human MR is 1 to 5 µM. Besides, the Selectivity result in the experiment on AR, ERα, GR and PR was “+ (greater than ten-fold antagonist activity against MR compared to at least one nuclear receptor selected from AR, ERα, GR and PR)”.
`Cc1c(C(=O)Nc2ccc(S(C)(=O)=O)cc2)nn(C)c1-c1ccccc1C(F)(F)F` [1,4-dimethyl-5-(2-trifluoromethyl-phenyl)-1H-pyrazole-3-carboxylic acid (4-methanesulfonyl-phenyl)-amide] displayed an IC50 against human MR of less than 0.5 µM. For the same compound, the Selectivity entry with AR, ERα, GR and PR was “+ (greater than ten-fold antagonist activity against MR compared to at least one nuclear receptor selected from AR, ERα, GR and PR)”.
In the case of `Cc1cc(C(=O)Nc2ccc(S(C)(=O)=O)cc2)c(C)n1-c1ccccc1/C=C/C(C)(C)C` [1-[2-((E)-3,3-Dimethyl-but-1-enyl)-phenyl]-2,5-dimethyl-1H-pyrrole-3-carboxylic acid (4-methanesulfonyl-phenyl)-amide], the IC50 at human MR was less than 0.5 µM. Further, the Selectivity entry in the experiment with AR, ERα, GR and PR was “++ (greater than ten-fold antagonist activity against MR compared to the four nuclear receptors AR, ERα, GR and PR)”.
`Cc1cc(C(=O)Nc2ccc(S(C)(=O)=O)cc2)c(C)n1-c1ccc(NC(=O)c2ccc(C(F)(F)F)cc2C(F)(F)F)cc1C(F)(F)F` [1-[4-(2,4-bis-trifluoromethyl-benzoylamino)-2-trifluoromethyl-phenyl]-2,5-dimethyl-1H-pyrrole-3-carboxylic acid (4-methanesulfonyl-phenyl)-amide]: at human MR, the IC50 fell in the range of 1 to 5 µM. Besides, the Selectivity entry in the experiment on AR, ERα, GR and PR was “+ (greater than ten-fold antagonist activity against MR compared to at least one nuclear receptor selected from AR, ERα, GR and PR)”.
